According to BigSolDB 2.1:

c1ccc2cc3ccccc3cc2c1
Conditions | solubility (mole fraction)
in DMAc, 293.15 K | 0.0083
in DMAc, 298.85 K | 0.0113
in DMAc, 303.85 K | 0.0142
in DMAc, 308.75 K | 0.0159
in DMAc, 313.95 K | 0.0185
in DMAc, 319.75 K | 0.0215
in DMAc, 324.25 K | 0.025
in DMAc, 328.05 K | 0.0269
in DMAc, 332.2 K | 0.0301
in DMAc, 333.15 K | 0.029
in DMAc, 339.35 K | 0.0338
in DMAc, 344.95 K | 0.0393
in DMAc, 348.45 K | 0.0432
in DMAc, 350.3 K | 0.0502
in DMAc, 354.55 K | 0.0485
in DMAc, 359.25 K | 0.0564
in DMF, 293.35 K | 0.0042
in DMF, 298.45 K | 0.0054
in DMF, 303 K | 0.0057
in DMF, 303.15 K | 0.0068
in DMF, 308 K | 0.0072
in DMF, 308.45 K | 0.0086
in DMF, 312.8 K | 0.0101
in DMF, 313.21 K | 0.0114
in DMF, 313.65 K | 0.0104
in DMF, 317.4 K | 0.011
in DMF, 318.15 K | 0.0127
in DMF, 318.85 K | 0.0131
in DMF, 322.8 K | 0.0139
in DMF, 323.25 K | 0.015
in DMF, 326.28 K | 0.0166
in DMF, 329.15 K | 0.018
in DMF, 333.15 K | 0.0191
in DMF, 334.55 K | 0.0211
in DMF, 334.9 K | 0.0221
in DMF, 339.75 K | 0.0252
in DMF, 345.05 K | 0.0292
in DMF, 348.29 K | 0.032
in DMF, 349.85 K | 0.0336
in DMF, 353.55 K | 0.0384
in DMF, 358.85 K | 0.0448
in DMF, 359.48 K | 0.0452
in NMP, 293.45 K | 0.0152
in NMP, 299.15 K | 0.0186
in NMP, 303.45 K | 0.0217
in NMP, 308.55 K | 0.0255
in NMP, 314.05 K | 0.0325
in NMP, 317.84 K | 0.043
in NMP, 318.15 K | 0.0409
in NMP, 324.75 K | 0.0455
in NMP, 331.21 K | 0.0546
in NMP, 331.25 K | 0.0539
in NMP, 335.25 K | 0.0591
in NMP, 339.75 K | 0.0653
in NMP, 344.55 K | 0.0738
in NMP, 349.85 K | 0.0804
in NMP, 350.45 K | 0.0825
in NMP, 353.55 K | 0.0884
